What was measured:
[1] = biological target: Replicase polyprotein 1ab (Severe acute respiratory syndrome coronavirus 2) (UniProt P0DTD1); assay: Inhibition of SARS Cov-2 papain-like protease extracted form Escherichia coli Rosetta (DE3) using fluorogenic substrate RLRGG-AMC assessed as inhibition rate by measuring fluorescent signal at 4 uM incubated for 30 mins relative to control
[2] = biological target: Replicase polyprotein 1ab (Severe acute respiratory syndrome coronavirus 2, UniProt P0DTD1); assay: Inhibition of SARS Cov-2 papain-like protease extracted form Escherichia coli Rosetta (DE3) using fluorogenic substrate RLRGG-AMC assessed as inhibition rate by measuring fluorescent signal incubated for 30 mins

SMILES	inhibition [1]	IC50 [2] [nM]
Cc1ccc(NC(=O)Oc2ccc([N+](=O)[O-])cc2)cc1C(=O)N[C@H](C)c1cccc2ccccc12	27%	–
CCOC(=O)[C@@H]1CCN(Cc2ccc(-c3cccc([C@@H](C)NC(=O)c4cc(NC5CNC5)ccc4C)c3)s2)C1	–	1940
Cc1ccc(NC(=O)c2ccnc(O)c2)cc1C(=O)N[C@H](C)c1cccc2ccccc12	74%	–
Cc1ccc(NC(=O)c2ccc(Cl)s2)cc1C(=O)N[C@H](C)c1cccc2ccccc12	13%	> 20000
Cc1ccc(NC(=O)c2cc(Br)cnc2O)cc1C(=O)N[C@H](C)c1cccc2ccccc12	Active; Compound Showed Weak Inhibitory Effect	–
C[C@@H](NC(=O)c1cc(N)ccc1O)c1cccc2ccccc12	6%	–
Cc1ccc(N)cc1C(=O)N[C@H](C)c1cccc2ccccc12	68%	–
COC(=O)Cc1ccc(CNc2ccc(C)c(C(=O)N[C@H](C)c3cccc4ccccc34)c2)cc1	21%	2910
Cc1ccc(NC2CNC2)cc1C(=O)N[C@H](C)c1cccc(-c2ccc(CN3CC[C@@H](C(=O)O)C3)s2)c1	–	270
Cc1ccc(NC(=O)c2cccnc2O)cc1C(=O)N[C@H](C)c1cccc2ccccc12	Active; Compound Showed Weak Inhibitory Effect	–
Cc1ccc(NCc2ccc(CC(=O)O)cc2)cc1C(=O)N[C@H](C)c1cccc2ccccc12	Active; Compound Showed Weak Inhibitory Effect	–
COc1ccc([N+](=O)[O-])c(C(=O)Nc2ccc(C)c(C(=O)N[C@H](C)c3cccc4ccccc34)c2)c1	53%	–
CCOC(=O)CCCNCc1ccc(-c2cccc([C@@H](C)NC(=O)c3cc(NC4CNC4)ccc3C)c2)s1	–	250
CC[C@@H](C)[C@@H](NC(=O)c1ccc(-c2cccc([C@@H](C)NC(=O)c3cc(N)ccc3C)c2)s1)C(=O)OC	73%	2720
COC(=O)[C@@H](CCC(=O)OC(C)(C)C)NCc1ccc(-c2cccc([C@@H](C)NC(=O)c3cc(N)ccc3C)c2)s1 (racemic)	81%	4710
Cc1ccc(NC(=O)c2cccs2)cc1C(=O)N[C@H](C)c1cccc2ccccc12	Active; Compound Showed Weak Inhibitory Effect	–
Cc1ccc(NC(=O)c2cc(Br)cnc2Cl)cc1C(=O)N[C@H](C)c1cccc2ccccc12	19%	–
CCOC(=O)CCCNCc1ccc(-c2cccc([C@@H](C)NC(=O)c3cc(N)ccc3C)c2)s1	Active; Compound Showed Weak Inhibitory Effect	–
Cc1ccc(N)cc1C(=O)N[C@H](C)c1cccc(-c2ccc(C=O)s2)c1	30%	–
